Experimental data reported in paper PMC12748989 (Nature Communications, 2025).
Ends that are not written are not given here.

What was measured:
MCF10A cells = settings: 24 h
MCF7 cells = settings: 24 h
TamR3 cells = settings: 24 h
PBMC = settings: 12.5 µM

Compound | IC50 (MCF10A cells) [µM] | IC50 (MCF7 cells) [µM] | IC50 (TamR3 cells) [µM] | Average (percentage cell inhibition), Dmastoparan MDA-MB231 12.5uM (MDA-MB-231 cells) [%] | Average (percentage cell inhibition), Mastoparan PBMC (PBMC) [%]
TLLTAIVKLFLK-NH2 [peptide 57] | 14.9 | 25 | 18.1 |  | 
LLQWLLKRLKAK-NH2 [peptide 11] | 16 | 11.5 | 11.4 |  | 
CC[C@H](C)[C@H](N)C(=O)N[C@@H](CC(N)=O)C(=O)N[C@@H](CC(C)C)C(=O)N[C@@H](CCCCN)C(=O)N[C@@H](C)C(=O)N[C@@H](CC(C)C)C(=O)N[C@@H](C)C(=O)N[C@@H](C)C(=O)N[C@@H](CC(C)C)C(=O)N[C@@H](C)C(=O)N[C@@H](CCCCN)C(=O)N[C@@H](CCCCN)C(=O)N[C@H](C(=O)N[C@@H](CC(C)C)C(N)=O)[C@@H](C)CC [Mastoparan, reference compound] | 16.9 | 21.8 | 18.4 |  | 
IILKKLLDFILK-NH2 [peptide 29] | 16.8 | 16.4 | 14.6 |  | 
CC[C@H](C)[C@H](N)C(=O)N[C@@H](CC(N)=O)C(=O)N[C@@H](CC(C)C)C(=O)N[C@@H](CCCCN)C(=O)N[C@@H](C)C(=O)N[C@@H](CC(C)C)C(=O)N[C@@H](C)C(=O)N[C@@H](C)C(=O)N[C@@H](CC(C)C)C(=O)N[C@@H](C)C(=O)N[C@@H](CCCCN)C(=O)N[C@@H](CC(N)=O)C(=O)N[C@H](C(=O)N[C@@H](CC(C)C)C(N)=O)[C@@H](C)CC [N12] |  |  |  | 52.6491 | 5.917
CC[C@H](C)[C@H](N)C(=O)N[C@@H](CC(N)=O)C(=O)N[C@@H](CC(C)C)C(=O)N[C@@H](CCCCN)C(=O)N[C@@H](C)C(=O)N[C@@H](CC(C)C)C(=O)N[C@@H](C)C(=O)N[C@@H](C)C(=O)N[C@@H](Cc1ccc(O)cc1)C(=O)N[C@@H](C)C(=O)N[C@@H](CCCCN)C(=O)N[C@@H](CCCCN)C(=O)N[C@H](C(=O)N[C@@H](CC(C)C)C(N)=O)[C@@H](C)CC [Y9] |  |  |  | 27.288 | 11.8226
CC[C@H](C)[C@H](N)C(=O)N[C@@H](CC(N)=O)C(=O)N[C@@H](CCCCN)C(=O)N[C@@H](CCCCN)C(=O)N[C@@H](C)C(=O)N[C@@H](CC(C)C)C(=O)N[C@@H](C)C(=O)N[C@@H](C)C(=O)N[C@@H](CC(C)C)C(=O)N[C@@H](C)C(=O)N[C@@H](CCCCN)C(=O)N[C@@H](CCCCN)C(=O)N[C@H](C(=O)N[C@@H](CC(C)C)C(N)=O)[C@@H](C)CC [K3] |  |  |  | 21.542 | -9.841
CC[C@H](C)[C@H](N)C(=O)N[C@@H](CC(N)=O)C(=O)N[C@@H](CC(C)C)C(=O)N[C@@H](CCCCN)C(=O)N[C@@H](C)C(=O)N[C@@H](CC(C)C)C(=O)N[C@@H](C)C(=O)N[C@@H](C)C(=O)N[C@@H](CC(C)C)C(=O)N[C@@H](C)C(=O)N[C@@H](CCCCN)C(=O)N[C@@H](CCCCN)C(=O)N[C@H](C(=O)N[C@H](C(N)=O)[C@@H](C)CC)[C@@H](C)CC [I14] |  |  |  | 33.7751 | 14.5337
CC[C@H](C)[C@H](N)C(=O)N[C@@H](CC(N)=O)C(=O)N[C@@H](C)C(=O)N[C@@H](CCCCN)C(=O)N[C@@H](C)C(=O)N[C@@H](CC(C)C)C(=O)N[C@@H](C)C(=O)N[C@@H](C)C(=O)N[C@@H](CC(C)C)C(=O)N[C@@H](C)C(=O)N[C@@H](CCCCN)C(=O)N[C@@H](CCCCN)C(=O)N[C@H](C(=O)N[C@@H](CC(C)C)C(N)=O)[C@@H](C)CC [A3] |  |  |  | 17.9778 | -7.622
